Where no end group is shown, it is not given here.
How the values were obtained:
[1] = tested on: S. aureus (29): reference (5) and clinical (24) strains; conditions: for Mean value of MIC: mean over 29 S. aureus strains (Table 5); for Mean MIC values: mean over 29 S. aureus strains, as repeated in Table 6; for MIC range among strains: range over all S. aureus strains and the salts of the peptide
Method: Microbiological assays were performed using reference and clinical strains of Staphylococcus aureus. Minimal inhibitory concentrations (MIC) were determined by broth microdilution method on 96-well polystyrene plates according to Clinical and Laboratory Standards Institute (CLSI) recommendations [Clinical and Laboratory Standards Institute (CLSI) [2012]]. […] All plates were incubated for 18 h at 37 °C. […] Reference strains of S. aureus: ATCC 6538, ATCC 6538/P, ATCC 9144, ATCC 12598, and ATCC 25923 were obtained from the Polish Collection of Microorganisms (PCM, Polish Academy of Sciences, Wrocław), whereas 24 clinical strains were isolated from the patients of the Clinic of Dermatology, Venereology and Allergology (Medical University of Gdańsk). Nine strains were characterized as methicillin-resistant (MRSA). Preliminary identification and detection was conducted on the ChromID MRSA/ChromID S. aureus biplate (bioMérieux) for the simultaneous detection of S. aureus and methicillin-resistant S. aureus (MRSA). All experiments were conducted at least in triplicate.
To asses an overall activity of peptides, the mean MIC values were calculated.

S. aureus K19N = format: cell-based, Staphylococcus aureus; conditions: clinical strain, broth microdilution, 0.5 × 10^5 CFU/mL, 18 h, 37 °C, at least triplicate
Method: (§1) Microbiological assays were performed using reference and clinical strains of Staphylococcus aureus. Minimal inhibitory concentrations (MIC) were determined by broth microdilution method on 96-well polystyrene plates according to Clinical and Laboratory Standards Institute (CLSI) recommendations [Clinical and Laboratory Standards Institute (CLSI) [2012]]. For this purpose, the initial inoculums of 0.5 × 10^5 CFU/mL of bacteria were exposed to a range of concentrations of the peptides (0.5–256 µg/mL). All plates were incubated for 18 h at 37 °C. MIC was taken as the lowest concentration of the compound at which the growth of bacteria was not observed. Reference strains of S. aureus: ATCC 6538, ATCC 6538/P, ATCC 9144, ATCC 12598, and ATCC 25923 were obtained from the Polish Collection of Microorganisms (PCM, Polish Academy of Sciences, Wrocław), whereas 24 clinical strains were isolated from the patients of the Clinic of Dermatology, Venereology and Allergology (Medical University of Gdańsk). Nine strains were characterized as methicillin-resistant (MRSA). Preliminary identification and detection was conducted on the ChromID MRSA/ChromID S. aureus biplate (bioMérieux) for the simultaneous detection of S. aureus and methicillin-resistant S. aureus (MRSA). All experiments were conducted at least in triplicate.

S. aureus 001S (MRSA) = format: cell-based, Staphylococcus aureus; conditions: clinical strain, broth microdilution, 0.5 × 10^5 CFU/mL, 18 h, 37 °C, at least triplicate
Method: as §1

S. aureus 043SC (MRSA) = format: cell-based, Staphylococcus aureus; conditions: clinical strain, broth microdilution, 0.5 × 10^5 CFU/mL, 18 h, 37 °C, at least triplicate
Method: as §1

S. aureus ATCC 6538 = format: cell-based, Staphylococcus aureus; conditions: ATCC 6538, reference strain; broth microdilution, 0.5 × 10^5 CFU/mL, 18 h, 37 °C, at least triplicate
Method: as §1

S. aureus 051N (MRSA) = format: cell-based, Staphylococcus aureus; conditions: clinical strain, broth microdilution, 0.5 × 10^5 CFU/mL, 18 h, 37 °C, at least triplicate
Method: as §1

S. aureus 002N = format: cell-based, Staphylococcus aureus; conditions: clinical strain, broth microdilution, 0.5 × 10^5 CFU/mL, 18 h, 37 °C, at least triplicate
Method: as §1

S. aureus ATCC 6538/P = format: cell-based, Staphylococcus aureus; conditions: reference strain, broth microdilution, 0.5 × 10^5 CFU/mL, 18 h, 37 °C, at least triplicate
Method: as §1

S. aureus 015N (MRSA) = format: cell-based, Staphylococcus aureus; conditions: clinical strain, broth microdilution, 0.5 × 10^5 CFU/mL, 18 h, 37 °C, at least triplicate
Method: as §1

S. aureus ATCC 12598 = format: cell-based, Staphylococcus aureus; conditions: ATCC 12598, reference strain; broth microdilution, 0.5 × 10^5 CFU/mL, 18 h, 37 °C, at least triplicate
Method: as §1

S. aureus 024N (MRSA) = format: cell-based, Staphylococcus aureus; conditions: clinical strain, broth microdilution, 0.5 × 10^5 CFU/mL, 18 h, 37 °C, at least triplicate
Method: as §1

S. aureus 017N (MRSA) = format: cell-based, Staphylococcus aureus; conditions: clinical strain, broth microdilution, 0.5 × 10^5 CFU/mL, 18 h, 37 °C, at least triplicate
Method: as §1

S. aureus 017S (MRSA) = format: cell-based, Staphylococcus aureus; conditions: clinical strain, broth microdilution, 0.5 × 10^5 CFU/mL, 18 h, 37 °C, at least triplicate
Method: as §1

S. aureus 001N (MRSA) = format: cell-based, Staphylococcus aureus; conditions: clinical strain, broth microdilution, 0.5 × 10^5 CFU/mL, 18 h, 37 °C, at least triplicate
Method: as §1

S. aureus 048S = format: cell-based, Staphylococcus aureus; conditions: clinical strain, broth microdilution, 0.5 × 10^5 CFU/mL, 18 h, 37 °C, at least triplicate
Method: as §1

S. aureus 053N = format: cell-based, Staphylococcus aureus; conditions: clinical strain, broth microdilution, 0.5 × 10^5 CFU/mL, 18 h, 37 °C, at least triplicate
Method: as §1

S. aureus K50S = format: cell-based, Staphylococcus aureus; conditions: clinical strain, broth microdilution, 0.5 × 10^5 CFU/mL, 18 h, 37 °C, at least triplicate
Method: as §1

S. aureus 005S = format: cell-based, Staphylococcus aureus; conditions: clinical strain, broth microdilution, 0.5 × 10^5 CFU/mL, 18 h, 37 °C, at least triplicate
Method: as §1

S. aureus K46N = format: cell-based, Staphylococcus aureus; conditions: clinical strain, broth microdilution, 0.5 × 10^5 CFU/mL, 18 h, 37 °C, at least triplicate
Method: as §1

S. aureus 039N = format: cell-based, Staphylococcus aureus; conditions: clinical strain, broth microdilution, 0.5 × 10^5 CFU/mL, 18 h, 37 °C, at least triplicate
Method: as §1

S. aureus 060S = format: cell-based, Staphylococcus aureus; conditions: clinical strain, broth microdilution, 0.5 × 10^5 CFU/mL, 18 h, 37 °C, at least triplicate
Method: as §1

S. aureus ATCC 9144 = format: cell-based, Staphylococcus aureus; conditions: ATCC 9144, reference strain; broth microdilution, 0.5 × 10^5 CFU/mL, 18 h, 37 °C, at least triplicate
Method: as §1

S. aureus 045N = format: cell-based, Staphylococcus aureus; conditions: clinical strain, broth microdilution, 0.5 × 10^5 CFU/mL, 18 h, 37 °C, at least triplicate
Method: as §1

S. aureus 051S = format: cell-based, Staphylococcus aureus; conditions: clinical strain, broth microdilution, 0.5 × 10^5 CFU/mL, 18 h, 37 °C, at least triplicate
Method: as §1

S. aureus 004N (MRSA) = format: cell-based, Staphylococcus aureus; conditions: clinical strain, broth microdilution, 0.5 × 10^5 CFU/mL, 18 h, 37 °C, at least triplicate
Method: as §1

S. aureus ATCC 25923 = format: cell-based, Staphylococcus aureus; conditions: ATCC 25923, reference strain; broth microdilution, 0.5 × 10^5 CFU/mL, 18 h, 37 °C, at least triplicate
Method: as §1

S. aureus 002S = format: cell-based, Staphylococcus aureus; conditions: clinical strain, broth microdilution, 0.5 × 10^5 CFU/mL, 18 h, 37 °C, at least triplicate
Method: as §1

S. aureus 033N = format: cell-based, Staphylococcus aureus; conditions: clinical strain, broth microdilution, 0.5 × 10^5 CFU/mL, 18 h, 37 °C, at least triplicate
Method: as §1

S. aureus 030N = format: cell-based, Staphylococcus aureus; conditions: clinical strain, broth microdilution, 0.5 × 10^5 CFU/mL, 18 h, 37 °C, at least triplicate
Method: as §1

S. aureus 013S = format: cell-based, Staphylococcus aureus; conditions: clinical strain, broth microdilution, 0.5 × 10^5 CFU/mL, 18 h, 37 °C, at least triplicate
Method: as §1

Substance	Mean value of MIC [1]	MIC (S. aureus K19N)	MIC (S. aureus 001S (MRSA))	MIC (S. aureus 043SC (MRSA))	MIC (S. aureus ATCC 6538)	MIC (S. aureus 051N (MRSA))	MIC (S. aureus 002N)	MIC (S. aureus ATCC 6538/P)	MIC (S. aureus 015N (MRSA))	MIC (S. aureus ATCC 12598)	MIC (S. aureus 024N (MRSA))	MIC (S. aureus 017N (MRSA))	MIC (S. aureus 017S (MRSA))	MIC (S. aureus 001N (MRSA))	MIC (S. aureus 048S)	MIC (S. aureus 053N)	MIC (S. aureus K50S)	MIC (S. aureus 005S)	MIC (S. aureus K46N)	MIC (S. aureus 039N)	further results
FLPLIGRVLSGIL-NH2 [Temporin A AcO^−]	4.2 µg/mL																				
FLPLIGRVLSGIL-NH2 [Temporin A Cl^−]	5.7 µg/mL	8 µg/mL	4 µg/mL	8 µg/mL	4 µg/mL	8 µg/mL	4 µg/mL	8 µg/mL	8 µg/mL	4 µg/mL	4 µg/mL	8 µg/mL	8 µg/mL	8 µg/mL	4 µg/mL	4 µg/mL	4 µg/mL	4 µg/mL	8 µg/mL	4 µg/mL	MIC (S. aureus 060S): 4 µg/mL; MIC (S. aureus ATCC 9144): 8 µg/mL; MIC (S. aureus 045N): 8 µg/mL; MIC (S. aureus 051S): 8 µg/mL; MIC (S. aureus 004N (MRSA)): 4 µg/mL; MIC (S. aureus ATCC 25923): 4 µg/mL; MIC (S. aureus 002S): 4 µg/mL; MIC (S. aureus 033N): 4 µg/mL; MIC (S. aureus 030N): 4 µg/mL; MIC (S. aureus 013S): 4 µg/mL; Mean MIC values [1]: 5.7 µg/mL
FLPLIGRVLSGIL-NH2 [Temporin A TFA^−]	5.9 µg/mL																				
GIGKFLKKAKKFGKAFVKILKK-NH2 [Pexiganan Cl^−]	7.4 µg/mL																				
GIGKFLKKAKKFGKAFVKILKK-NH2 [Pexiganan TFA^−]	8.4 µg/mL																				
GIGKFLKKAKKFGKAFVKILKK-NH2 [Pexiganan]																					MIC range among strains [1]: 1 to 16 µg/mL
GLFDVIKKVASVIGGL-NH2 [Citropin 1.1 AcO^−]	10.0 µg/mL	16 µg/mL	16 µg/mL	8 µg/mL	4 µg/mL	8 µg/mL	16 µg/mL	8 µg/mL	8 µg/mL	8 µg/mL	2 µg/mL	4 µg/mL	8 µg/mL	16 µg/mL	16 µg/mL	16 µg/mL	1 µg/mL	2 µg/mL	16 µg/mL	8 µg/mL	MIC (S. aureus 060S): 1 µg/mL; MIC (S. aureus ATCC 9144): 16 µg/mL; MIC (S. aureus 045N): 16 µg/mL; MIC (S. aureus 051S): 4 µg/mL; MIC (S. aureus 004N (MRSA)): 8 µg/mL; MIC (S. aureus ATCC 25923): 16 µg/mL; MIC (S. aureus 002S): 16 µg/mL; MIC (S. aureus 033N): 8 µg/mL; MIC (S. aureus 030N): 16 µg/mL; MIC (S. aureus 013S): 2 µg/mL; Mean MIC values [1]: 10.0 µg/mL
GLFDVIKKVASVIGGL-NH2 [Citropin 1.1 Cl^−]	10.0 µg/mL	16 µg/mL	16 µg/mL	8 µg/mL	4 µg/mL	8 µg/mL	16 µg/mL	8 µg/mL	8 µg/mL	8 µg/mL	2 µg/mL	4 µg/mL	4 µg/mL	16 µg/mL	16 µg/mL	16 µg/mL	1 µg/mL	2 µg/mL	16 µg/mL	16 µg/mL	MIC (S. aureus 060S): 2 µg/mL; MIC (S. aureus ATCC 9144): 16 µg/mL; MIC (S. aureus 045N): 16 µg/mL; MIC (S. aureus 051S): 4 µg/mL; MIC (S. aureus 004N (MRSA)): 8 µg/mL; MIC (S. aureus ATCC 25923): 16 µg/mL; MIC (S. aureus 002S): 8 µg/mL; MIC (S. aureus 033N): 16 µg/mL; MIC (S. aureus 030N): 16 µg/mL; MIC (S. aureus 013S): 2 µg/mL; Mean MIC values [1]: 10.0 µg/mL
GLFDVIKKVASVIGGL-NH2 [Citropin 1.1]																					MIC range among strains [1]: 1 to 32 µg/mL
KWKLFKKIGAVLKVL-NH2 [CAMEL]	below 3.5 µg/mL																				MIC range among strains [1]: ≤ 0.25 to 8 µg/mL

Reference: PMC5917001, “Counter-ion effect on antistaphylococcal activity and cytotoxicity of selected antimicrobial peptides” (Amino Acids, 2018)
